# In paper PMC7413254 (Nature Communications, 2020):
# Where two headings read alike, the source gives them in different places.
# How the values were obtained:
# non-expressing oocytes [1] = assay: cells; assay type: cell-based, Xenopus laevis; details: Xenopus laevis, total [3H]CQ transport; for inhibition at 500 µM: [test solute] = 0.5 mM; for inhibition at 1000 µM: [test solute] = 1 mM; for inhibition at 2000 µM: [test solute] = 2 mM
# Procedure, shortened: (§1)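 Transport runs from the acidic bath into the cytosol, analogous to PfCRT-mediated efflux out of the vacuole. Non-expressing oocytes act as background.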
# PfCRT^3D7 [2] = target: T1, PfCRT^3D7 (Plasmodium falciparum, UniProt Q8IBZ9); assay: cell-based; assay type: cell-based; details: total [3H]CQ transport; for inhibition at 500 µM: [test solute] = 0.5 mM; for inhibition at 1000 µM: [test solute] = 1 mM; for inhibition at 2000 µM: [test solute] = 2 mM
# T1 sequence (Q8IBZ9 59-398): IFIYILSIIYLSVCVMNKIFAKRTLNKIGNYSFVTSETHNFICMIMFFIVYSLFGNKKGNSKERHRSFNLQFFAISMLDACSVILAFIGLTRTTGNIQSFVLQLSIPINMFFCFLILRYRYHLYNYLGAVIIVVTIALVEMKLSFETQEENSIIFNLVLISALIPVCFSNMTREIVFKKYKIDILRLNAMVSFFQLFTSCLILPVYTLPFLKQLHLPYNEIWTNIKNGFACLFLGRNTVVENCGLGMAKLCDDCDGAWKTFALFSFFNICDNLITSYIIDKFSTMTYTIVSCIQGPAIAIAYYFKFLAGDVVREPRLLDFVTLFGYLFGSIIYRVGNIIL
# Procedure, shortened: as §1
# PfCRT [3] = assay: Influx of VF-6 via PfCRT into the oocyte, solutes tested as potential co-substrates; assay type: cell-based, Plasmodium falciparum; set-up: key: X: Compounds that have been tested as potential co-substrates but are not required for influx of VF-6 via PfCRT into the oocyte; details: X marks the solute
# PfCRT [4] = assay: Potential co-substrates tested for influx of VF-6 via PfCRT into the oocyte; assay type: cell-based, Plasmodium falciparum; set-up: key: X: Compounds that have been tested as potential co-substrates but are not required for influx of VF-6 via PfCRT into the oocyte
# PfCRT^Dd2 [5] = target: T2, PfCRT^Dd2 (Plasmodium falciparum, UniProt Q9N623, A220S/I356T/K76T/M74I/N326S/N75E/Q271E/R371I); assay: cell-based; assay type: cell-based; details: […]; for activity at 45000 µM: [test solute]i = 45 mM (30 mM for some solutes due to solubility)
# T2 sequence (Q9N623 whole entry A220S/I356T/K76T/M74I/N326S/N75E/Q271E/R371I): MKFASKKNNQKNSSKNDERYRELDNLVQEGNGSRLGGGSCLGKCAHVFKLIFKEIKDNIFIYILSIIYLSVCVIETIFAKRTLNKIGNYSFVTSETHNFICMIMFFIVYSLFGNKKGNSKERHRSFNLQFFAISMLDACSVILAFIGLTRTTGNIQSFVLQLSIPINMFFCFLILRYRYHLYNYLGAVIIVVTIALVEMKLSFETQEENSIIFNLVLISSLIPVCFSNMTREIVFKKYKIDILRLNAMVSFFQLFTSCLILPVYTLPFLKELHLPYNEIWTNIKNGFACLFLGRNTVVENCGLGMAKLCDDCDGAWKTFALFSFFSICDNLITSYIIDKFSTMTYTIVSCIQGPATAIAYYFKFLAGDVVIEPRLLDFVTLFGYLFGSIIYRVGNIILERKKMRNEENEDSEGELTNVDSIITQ
# Procedure, shortened: (§2)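 Oocytes (ten per treatment, ≥4 independent frogs/days) were preloaded by injecting VF-6 in 25 nL ND96 at pH 5.0, 5.5, 6.0 or 7.0, or Na^+-free choline buffer, then uptake run 1.5 h, 27.5 °C, ND96 pH 5.5 by default. Internal concentrations assumed ~400 nL oocyte volume.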
# PfCRT^Ecu1110 [6] = target: T3, PfCRT^Ecu1110 (Plasmodium falciparum, UniProt Q9N623, A220S/I356L/K76T/N326D); assay: cell-based; assay type: cell-based; details: […]
# T3 sequence (Q9N623 whole entry A220S/I356L/K76T/N326D): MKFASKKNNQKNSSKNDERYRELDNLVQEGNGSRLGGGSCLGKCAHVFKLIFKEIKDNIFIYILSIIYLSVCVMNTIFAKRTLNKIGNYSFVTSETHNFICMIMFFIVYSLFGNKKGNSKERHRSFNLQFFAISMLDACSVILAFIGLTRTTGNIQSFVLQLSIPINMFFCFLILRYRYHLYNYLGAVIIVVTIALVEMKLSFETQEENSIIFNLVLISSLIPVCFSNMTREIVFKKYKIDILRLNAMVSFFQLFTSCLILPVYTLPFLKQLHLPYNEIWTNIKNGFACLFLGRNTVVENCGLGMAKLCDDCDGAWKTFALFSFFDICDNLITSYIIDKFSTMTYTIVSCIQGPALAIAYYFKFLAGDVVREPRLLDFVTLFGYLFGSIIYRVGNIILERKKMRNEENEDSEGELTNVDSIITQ
# Procedure, shortened: as §2
# PfCRT^3D7 [7] = target: T1, PfCRT^3D7; assay: cell-based; assay type: cell-based
# Procedure, shortened: as §2
# PfNT1 = target: T4, PfNT1 (Plasmodium falciparum, UniProt Q8IDM6); assay: cell-based; assay type: cell-based; details: for activity at 5000 µM: total [3H]CQ transport
# T4 construct: expressed in transfected cells; host or cells: Xenopus laevis oocytes (stage V-VI), cRNA-injected
# T4 sequence (Q8IDM6 whole entry): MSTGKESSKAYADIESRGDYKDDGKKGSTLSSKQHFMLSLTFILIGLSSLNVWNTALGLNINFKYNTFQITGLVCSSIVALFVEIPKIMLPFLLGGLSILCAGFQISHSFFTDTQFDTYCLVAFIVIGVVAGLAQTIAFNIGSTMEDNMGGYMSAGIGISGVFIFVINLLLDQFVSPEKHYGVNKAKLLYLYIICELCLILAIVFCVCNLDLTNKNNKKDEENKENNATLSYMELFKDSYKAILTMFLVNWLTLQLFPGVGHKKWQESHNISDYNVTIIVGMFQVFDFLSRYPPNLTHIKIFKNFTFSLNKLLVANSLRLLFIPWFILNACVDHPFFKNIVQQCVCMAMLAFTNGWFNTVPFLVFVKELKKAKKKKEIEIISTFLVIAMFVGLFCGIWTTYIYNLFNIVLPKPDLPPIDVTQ
# Procedure, shortened: as §2
# PfCRT^Dd2 [8] = target: T2, PfCRT^Dd2; assay: [3H]CQ uptake into Xenopus oocytes, cis-inhibition by unlabelled solute; assay type: cell-based
# Procedure, shortened: as §1
# PfCRT^Ecu1110 [9] = target: T3, PfCRT^Ecu1110; assay: as above; assay type: cell-based
# Procedure, shortened: as §1
# non-expressing oocytes [10] = assay type: cell-based, Xenopus laevis; details: total [3H]CQ transport; for Uptake of [3H]CQ (% non-expressing oocyte control), trans-stimulation: non-expressing oocytes, normalised to the oocyte type control; for Uptake of [3H]CQ (% PfCRTDd2 control), trans-stimulation, non-expressing oocytes: mean ± SEM, SEM
# Procedure, shortened: as §2
# [11] = Oocyte, mean ± SEM, SEM, read-out: Uptake of [3H]CQ (% PfCRTDd2 control), cis-inhibition, non-expressing oocytes
# [12] = non-expressing oocytes, normalised to the oocyte type control, read-out: Uptake of [3H]CQ (% non-expressing oocyte control), cis-inhibition
# [13] = PfCRT3D7 oocytes, normalised to the oocyte type control, read-out: Uptake of [3H]CQ (% PfCRT3D7 control), cis-inhibition
# [14] = mean ± SEM, SEM, read-out: Uptake of [3H]CQ (% PfCRTDd2 control), cis-inhibition, PfCRT3D7
# [15] = read-out: PfCRT-mediated [3H]CQ transport, cis-inhibition (% PfCRTDd2 control)
# [16] = read-out: Uptake of [3H]CQ (% PfCRTDd2 control), cis-inhibition
# [17] = read-out: Uptake of [3H]CQ (% PfCRTDd2 control), cis-inhibition, PfCRTDd2, SEM
# [18] = read-out: [3H]CQ transport (% PfCRTDd2 control), cis-inhibition, PfCRTDd2, SEM
# [19] = read-out: PfCRT-mediated [3H]CQ transport, cis-inhibition (% PfCRTEcu1110 control)
# [20] = read-out: Uptake of [3H]CQ (% PfCRTDd2 control), cis-inhibition, PfCRTEcu1110, SEM
# [21] = read-out: Uptake of [3H]CQ (% PfCRTEcu1110 control), cis-inhibition
# [22] = read-out: [3H]CQ transport (% PfCRTEcu1110 control), cis-inhibition, PfCRTEcu1110, SEM
smiles,measurement,setting,value
N[C@@H](CS)C(=O)O [L-cysteine],inhibition at 500 µM,non-expressing oocytes [1]; [11],2.1 ± 0.08%
same,inhibition at 1000 µM,non-expressing oocytes [1]; [11],3.4 ± 0.01%
same,inhibition at 2000 µM,non-expressing oocytes [1]; [11],2.3 ± 0.1%
same,inhibition at 500 µM,non-expressing oocytes [1]; [12],99 ± 5.3%
same,inhibition at 1000 µM,non-expressing oocytes [1]; [12],100 ± 4.6%
same,inhibition at 2000 µM,non-expressing oocytes [1]; [12],99 ± 3.5%
same,inhibition at 500 µM,PfCRT^3D7 [2]; [13],99 ± 3.2%
same,inhibition at 1000 µM,PfCRT^3D7 [2]; [13],100 ± 3.6%
same,inhibition at 2000 µM,PfCRT^3D7 [2]; [13],99 ± 4.2%
same,inhibition at 500 µM,PfCRT^3D7 [2]; [14],3.4 ± 0.05%
same,inhibition at 1000 µM,PfCRT^3D7 [2]; [14],2.5 ± 0.05%
same,inhibition at 2000 µM,PfCRT^3D7 [2]; [14],3.1 ± 0.08%
same,Compounds that have been tested as potential co-substrates but are not required for influx of VF-6 via PfCRT into the oocyte,PfCRT [3],X
same,Tested as potential co-substrate but not required for influx of VF-6 via PfCRT into the oocyte,PfCRT [4],X
same,activity at 5000 µM,"PfCRT^Dd2 [5]; pH 5.5, read-out: PfCRT-mediated [3H]CQ transport, trans-stimulation (% PfCRTDd2 control), [test solute]i = 5 mM (intracellular), PfCRTDd2 oocytes, normalised to oocyte type control",97 ± 2.6%
same,activity at 5000 µM,"PfCRT^Dd2 [5]; pH 5.5, read-out: Uptake of [3H]CQ (% PfCRTDd2 control), trans-stimulation, PfCRTDd2, total [3H]CQ transport, [test solute]i = 5 mM (intracellular), mean ± SEM, SEM",99 ± 3.2%
same,activity at 5000 µM,"PfCRT^Dd2 [5]; pH 5.5, read-out: Uptake of [3H]CQ (% PfCRTDd2 control), trans-stimulation, PfCRTDd2 oocytes, [test solute]i = 5 mM, total [3H]CQ transport, normalised to the oocyte type control",99 ± 3.2%
same,activity at 45000 µM,"PfCRT^Dd2 [5]; pH 5.5, read-out: Uptake of [3H]CQ (% PfCRTDd2 control), trans-stimulation, PfCRTDd2 oocytes, total [3H]CQ transport, normalised to the oocyte type control",101 ± 3.7%
same,activity at 5000 µM,"PfCRT^Dd2 [5]; pH 5.5, read-out: [3H]CQ transport (% PfCRTDd2 control), trans-stimulation, PfCRTDd2, trans-stimulation, [test solute]i = 5 mM (injected), PfCRT-mediated component (background subtracted), mean ± SEM, SEM",97 ± 2.6%
same,activity at 45000 µM,"PfCRT^Dd2 [5]; pH 5.5, read-out: [3H]CQ transport (% PfCRTDd2 control), trans-stimulation, PfCRTDd2, trans-stimulation, PfCRT-mediated component (background subtracted), mean ± SEM, SEM",99 ± 4.5%
same,activity at 5000 µM,"PfCRT^Ecu1110 [6]; pH 5.5, read-out: PfCRT-mediated [3H]CQ transport, trans-stimulation (% PfCRTEcu1110 control), [test solute]i = 5 mM (intracellular), PfCRTEcu1110 oocytes, normalised to oocyte type control",95 ± 3%
same,activity at 5000 µM,"PfCRT^Ecu1110 [6]; pH 5.5, read-out: Uptake of [3H]CQ (% PfCRTEcu1110 control), trans-stimulation, PfCRTEcu1110 oocytes, [test solute]i = 5 mM, total [3H]CQ transport, normalised to the oocyte type control",97 ± 4.2%
same,activity at 45000 µM,"PfCRT^Ecu1110 [6]; pH 5.5, read-out: Uptake of [3H]CQ (% PfCRTEcu1110 control), trans-stimulation, PfCRTEcu1110 oocytes, [test solute]i = 45 mM (30 mM for some solutes due to solubility), total [3H]CQ transport, normalised to the oocyte type control",100 ± 3.5%
same,activity at 5000 µM,"PfCRT^Ecu1110 [6]; read-out: Uptake of [3H]CQ (% PfCRTDd2 control), trans-stimulation, PfCRTEcu1110, total [3H]CQ transport, [test solute]i = 5 mM (intracellular), mean ± SEM, SEM",35 ± 1.4%
same,activity at 45000 µM,"PfCRT^Ecu1110 [6]; read-out: Uptake of [3H]CQ (% PfCRTDd2 control), trans-stimulation, PfCRTEcu1110, total [3H]CQ transport, [test solute]i = 45 mM (intracellular; 30 mM for some solutes due to solubility), mean ± SEM, SEM",36 ± 2.7%
same,activity at 5000 µM,"PfCRT^3D7 [7]; PfCRT3D7 oocytes, [test solute]i = 5 mM, total [3H]CQ transport, normalised to the oocyte type control, read-out: Uptake of [3H]CQ (% PfCRT3D7 control), trans-stimulation",100 ± 2.4%
same,"[3H]CQ transport (% PfCRT3D7 control), trans-stimulation, PfCRT3D7",PfCRT^3D7 [7]; SEM,0.3 ± 0.02 % PfCRT3D7 control
same,activity at 5000 µM,"PfCRT^3D7 [7]; [test solute]i = 5 mM (intracellular), PfCRT3D7 oocytes, normalised to oocyte type control, read-out: PfCRT-mediated [3H]CQ transport, trans-stimulation (% PfCRT3D7 control)",98 ± 3.1%
same,activity at 45000 µM,"PfCRT^3D7 [7]; SEM, read-out: Uptake of [3H]CQ (% PfCRTDd2 control), trans-stimulation, PfCRT3D7",3.2 ± 0.08%
same,activity at 45000 µM,"PfCRT^3D7 [7]; read-out: PfCRT-mediated [3H]CQ transport, trans-stimulation (% PfCRT3D7 control)",94 ± 4.4%
same,activity at 45000 µM,"PfCRT^3D7 [7]; read-out: Uptake of [3H]CQ (% PfCRT3D7 control), trans-stimulation",96 ± 3.5%
same,activity at 5000 µM,"PfCRT^3D7 [7]; total [3H]CQ transport, [test solute]i = 5 mM (intracellular), mean ± SEM, SEM, read-out: Uptake of [3H]CQ (% PfCRTDd2 control), trans-stimulation, PfCRT3D7",3.3 ± 0.05%
same,activity at 5000 µM,"PfNT1; PfNT1 oocytes, [test solute]i = 5 mM, normalised to the oocyte type control, read-out: Uptake of [3H]CQ (% PfNT1 control), trans-stimulation",98 ± 3.7%
same,activity at 45000 µM,"PfNT1; SEM, read-out: Uptake of [3H]CQ (% PfCRTDd2 control), trans-stimulation, PfNT1",2.6 ± 0.05%
same,activity at 45000 µM,"PfNT1; read-out: Uptake of [3H]CQ (% PfNT1 control), trans-stimulation",99 ± 3.2%
same,activity at 5000 µM,"PfNT1; [test solute]i = 5 mM (intracellular), mean ± SEM, SEM, read-out: Uptake of [3H]CQ (% PfCRTDd2 control), trans-stimulation, PfNT1",2.6 ± 0.08%
same,inhibition at 500 µM,PfCRT^Dd2 [8]; [15],94 ± 4.1%
same,inhibition at 1000 µM,PfCRT^Dd2 [8]; [15],95 ± 3.6%
same,inhibition at 2000 µM,PfCRT^Dd2 [8]; [15],95 ± 2.8%
same,inhibition at 500 µM,PfCRT^Dd2 [8]; [16],97 ± 9.2%
same,inhibition at 2000 µM,PfCRT^Dd2 [8]; [16],97 ± 3.1%
same,inhibition at 500 µM,PfCRT^Dd2 [8]; [17],97 ± 9.2%
same,inhibition at 1000 µM,PfCRT^Dd2 [8]; [17],96 ± 3.5%
same,inhibition at 2000 µM,PfCRT^Dd2 [8]; [17],97 ± 3.1%
same,inhibition at 1000 µM,PfCRT^Dd2 [8]; [18],95 ± 3.6%
same,inhibition at 2000 µM,PfCRT^Dd2 [8]; [18],95 ± 2.8%
same,inhibition at 500 µM,PfCRT^Ecu1110 [9]; [19],94 ± 1.6%
same,inhibition at 1000 µM,PfCRT^Ecu1110 [9]; [19],87 ± 2.6%
same,inhibition at 2000 µM,PfCRT^Ecu1110 [9]; [19],98 ± 4.5%
same,inhibition at 500 µM,PfCRT^Ecu1110 [9]; [20],31 ± 1%
same,inhibition at 1000 µM,PfCRT^Ecu1110 [9]; [20],29 ± 1.5%
same,inhibition at 2000 µM,PfCRT^Ecu1110 [9]; [20],33 ± 1.4%
same,inhibition at 500 µM,PfCRT^Ecu1110 [9]; [21],95 ± 4.2%
same,inhibition at 1000 µM,PfCRT^Ecu1110 [9]; [21],89 ± 5.5%
same,inhibition at 2000 µM,PfCRT^Ecu1110 [9]; [21],100 ± 7.1%
same,inhibition at 500 µM,PfCRT^Ecu1110 [9]; [22],28 ± 1.1%
same,inhibition at 1000 µM,PfCRT^Ecu1110 [9]; [22],26 ± 1.5%
same,inhibition at 2000 µM,PfCRT^Ecu1110 [9]; [22],30 ± 1.7%
same,"Uptake of [3H]CQ (% non-expressing oocyte control), trans-stimulation",non-expressing oocytes [10]; [test solute]i = 5 mM,98 ± 2.2 % non-expressing oocyte control
same,"Uptake of [3H]CQ (% non-expressing oocyte control), trans-stimulation",non-expressing oocytes [10]; [test solute]i = 45 mM (30 mM for some solutes due to solubility),100 ± 4.2 % non-expressing oocyte control
same,"Uptake of [3H]CQ (% PfCRTDd2 control), trans-stimulation, non-expressing oocytes",non-expressing oocytes [10]; [test solute]i = 5 mM (intracellular),3.1 ± 0.07 % PfCRTDd2 control
same,"Uptake of [3H]CQ (% PfCRTDd2 control), trans-stimulation, non-expressing oocytes",non-expressing oocytes [10]; [test solute]i = 45 mM (intracellular; 30 mM for some solutes due to solubility),2.2 ± 0.03 % PfCRTDd2 control
